Starred links: 1 amine or outer side, 2 acyl side, 3 side chain; linkers in the order of their positions; H or OH if unused. Non-standard residues stand in square brackets, D forms with d. Residues, ends and D or L forms follow the SMILES beside them. Groups on a side chain read outwards from the residue. ξ: configuration not given here. *: point of attachment. X2 = CCCCCCCCCCCCCCCC(=O)N[C@@H](CCC(=O)N[C@@H](CCC(=O)N[C@@H](CCC(=O)NCCCOCCOCCOCCCNC(=O)CCC(=O)NCCCOCCOCCOCCCNC(=O)CCC(=O)NCCCOCCOCCOCCCN*)C(=O)O)C(=O)O)C(=O)O; PEG12 = NCCOCCOCCOCCOCCOCCOCCOCCOCCOCCOCCOCCOCCC(=O)O; γGlu = O=C(O)[C@H](CCC(=O)[*:2])N[*:1]; ξγGlu = O=C(O)C(CCC(=O)[*:2])N[*:1]; Stearoyl = CCCCCCCCCCCCCCCCCC(=O)*; Palmitoyl = CCCCCCCCCCCCCCCC(=O)*; Suc = O=C(CCC(=O)[*:2])[*:1]; αMeK = C[C@](N)(CCCCN)C(=O)O; Nle = CCCC[C@H](N)C(=O)O; AEEA = NCCOCCOCC(=O)O; Aib = CC(C)(N)C(=O)O
How the values were obtained:
Relaxin receptor 1 [1] = biological target: T1, Relaxin receptor 1 (Homo sapiens, UniProt Q9HBX9); test: Agonist activity at human RXFP1 expressed in human OVCAR-5 cells assessed as intracellular cAMP accumulation incubated for 30 mins by HTRF assay; type: functional, cell-based
T1 sequence (Q9HBX9 whole entry): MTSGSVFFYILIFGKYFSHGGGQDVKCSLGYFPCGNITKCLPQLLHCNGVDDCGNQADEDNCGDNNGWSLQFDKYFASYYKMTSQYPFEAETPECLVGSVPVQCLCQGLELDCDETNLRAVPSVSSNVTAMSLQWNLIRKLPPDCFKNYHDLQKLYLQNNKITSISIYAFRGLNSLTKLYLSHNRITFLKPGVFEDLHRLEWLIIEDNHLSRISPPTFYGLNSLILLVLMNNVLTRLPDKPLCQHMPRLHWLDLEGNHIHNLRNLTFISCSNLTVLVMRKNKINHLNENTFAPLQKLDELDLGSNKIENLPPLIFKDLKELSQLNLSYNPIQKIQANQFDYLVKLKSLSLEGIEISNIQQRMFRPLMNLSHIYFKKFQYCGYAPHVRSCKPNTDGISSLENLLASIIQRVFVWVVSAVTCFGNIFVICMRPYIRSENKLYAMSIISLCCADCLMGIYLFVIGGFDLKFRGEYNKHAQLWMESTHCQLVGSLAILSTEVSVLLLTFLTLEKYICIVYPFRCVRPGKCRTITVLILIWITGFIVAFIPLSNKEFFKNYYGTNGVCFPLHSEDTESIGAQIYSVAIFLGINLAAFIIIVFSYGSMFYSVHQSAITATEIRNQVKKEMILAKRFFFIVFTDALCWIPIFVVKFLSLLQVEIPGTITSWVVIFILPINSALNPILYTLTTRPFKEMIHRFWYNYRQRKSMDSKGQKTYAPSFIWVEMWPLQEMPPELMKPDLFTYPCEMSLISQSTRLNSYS

[2] = biological target: T2, Relaxin receptor 1 (Homo sapiens) (UniProt Q9HBX9); test: Agonist activity at human RXFP1 expressed in human OVCAR-5 cells assessed as intracellular cAMP accumulation by measuring maximal efficacy incubated for 30 mins by HTRF assay relative to control; type: functional, cell-based; details: filed as agonist
T2 sequence (whole entry): T1 sequence (Q9HBX9 whole entry)

Relaxin receptor 1 [3] = biological target: T1, Relaxin receptor 1; test: Agonist activity at human RXFP1 expressed in 2%HSA treated human OVCAR-5 cells assessed as intracellular cAMP accumulation incubated for 30 mins with 2% HSA pretreated compound by HTRF assay; type: functional, cell-based
[4] = biological target: T2, Relaxin receptor 1 (Homo sapiens); test: Agonist activity at human RXFP1 expressed in 2%HSA treated human OVCAR-5 cells assessed as intracellular cAMP accumulation by measuring maximal efficacy incubated for 30 mins with 2% HSA pretreated compound by HTRF assay relative to control; type: functional, cell-based; details: filed as agonist
[5] = Half-life in male Sprague-Dawley rat at 1 mg/kg, iv measured after 198 hrs by LC-HRMS analysis; type: ADME, organism-based; details: in vivo

| SMILES | EC50 (Relaxin receptor 1 [1]) [nM] | Emax [2] [%] | EC50 (Relaxin receptor 1 [3]) [nM] | Emax [4] [%] | half-life [5] [h] |
| --- | --- | --- | --- | --- | --- |
| CCCCCCCCCCCCCCCC(=O)N[C@@H](CCC(=O)N[C@@H](CCC(=O)N[C@@H](CCC(=O)NCCCOCCOCCOCCCNC(=O)CCC(=O)NCCCOCCOCCOCCCNC(=O)CCC(=O)NCCCOCCOCCOCCCNC(=O)CCC(=O)NCCCC[C@H](NC(=O)[C@@H](NC(=O)[C@H](CCCCNC(C)=O)NC(=O)[C@H](C)NC(=O)[C@H](CCCNC(=N)N)NC(=O)[C@@H](NC(=O)[C@H](CCCCN)NC(=O)[C@H](CCC(=O)O)NC(=O)[C@H](CCCNC(=N)N)NC(=O)CNC(=O)[C@H](CCC(=O)O)NC(=O)[C@H](CC(C)C)NC(C)=O)C(C)C)[C@@H](C)CC)C(=O)NC(C)(C)C(=O)N[C@@H](CCC(=O)O)C(=O)NCC(=O)N[C@@H](CCCC)C(=O)N[C@@H](CO)C(=O)N[C@H](C(=O)N[C@@H](Cc1ccccc1)C(=O)N[C@@H](CO)C(=O)N[C@@](C)(CCCCN)C(=O)N[C@@H](CCCNC(=N)N)C(=O)N[C@@H](C)C(=O)N[C@@H](CCCCNC(C)=O)C(N)=O)[C@@H](C)O)C(=O)O)C(=O)O)C(=O)O (Ac-LEGREKVRAK(Ac)IK([Suc-X2])[Aib]EG[Nle]STFS[αMeK]RAK(Ac)-NH2) | 0.43 | 91 | 31.7 | 89 | – |
| CCCCCCCCCCCCCCCC(=O)N[C@@H](CCC(=O)N[C@@H](CCC(=O)N[C@@H](CCC(=O)NCCOCCOCC(=O)NCCOCCOCC(=O)NCCOCCOCC(=O)NCCCC[C@H](NC(=O)CNC(=O)[C@H](CCC(=O)O)NC(=O)C(C)(C)NC(=O)C(C)(C)NC(=O)[C@@H](NC(=O)[C@H](CCCCNC(C)=O)NC(=O)[C@H](C)NC(=O)[C@H](CCCNC(=N)N)NC(=O)[C@@H](NC(=O)[C@H](CCCCN)NC(=O)[C@H](CCC(=O)O)NC(=O)[C@H](CCCNC(=N)N)NC(=O)CNC(=O)[C@H](CCC(=O)O)NC(=O)[C@H](CC(C)C)NC(C)=O)C(C)C)[C@@H](C)CC)C(=O)N[C@@H](CO)C(=O)N[C@H](C(=O)N[C@@H](Cc1c[nH]c2ccccc12)C(=O)N[C@@H](CO)C(=O)NC(C)(C)C(=O)N[C@@H](CCCNC(=N)N)C(=O)N[C@@H](CCCCN)C(=O)N[C@@H](CCCCNC(C)=O)C(N)=O)[C@@H](C)O)C(=O)O)C(=O)O)C(=O)O (Ac-LEGREKVRAK(Ac)I[Aib][Aib]EGK([AEEA-AEEA-AEEA-γGlu-γGlu-γGlu-Palmitoyl])STWS[Aib]RKK(Ac)-NH2) | – | 88 | > 2000 | – | – |
| CCCCCCCCCCCCCCCCCC(=O)N[C@@H](CCC(=O)N[C@@H](CCC(=O)N[C@@H](CCC(=O)NCCOCCOCC(=O)NCCOCCOCC(=O)NCCOCCOCC(=O)NCCCC[C@H](NC(=O)[C@H](CCCCNC(C)=O)NC(=O)[C@H](CCCCN)NC(=O)[C@H](CCCNC(=N)N)NC(=O)C(C)(C)NC(=O)[C@H](CO)NC(=O)[C@H](Cc1c[nH]c2ccccc12)NC(=O)[C@@H](NC(=O)[C@H](CO)NC(=O)[C@H](CCC(N)=O)NC(=O)CNC(=O)[C@H](CCC(=O)O)NC(=O)C(C)(C)NC(=O)C(C)(C)NC(=O)[C@@H](NC(=O)[C@H](CCCCNC(C)=O)NC(=O)[C@H](C)NC(=O)[C@H](CCCNC(=N)N)NC(=O)[C@@H](NC(=O)[C@H](CCCCN)NC(=O)[C@H](CCC(=O)O)NC(=O)[C@H](CCCNC(=N)N)NC(=O)CNC(=O)[C@H](CCC(=O)O)NC(=O)[C@H](CC(C)C)NC(C)=O)C(C)C)[C@@H](C)CC)[C@@H](C)O)C(N)=O)C(=O)O)C(=O)O)C(=O)O (Ac-LEGREKVRAK(Ac)I[Aib][Aib]EGQSTWS[Aib]RKK(Ac)K([AEEA-AEEA-AEEA-γGlu-γGlu-γGlu-Stearoyl])-NH2) | – | 88 | 47.2 | 82 | – |
| CCCCCCCCCCCCCCCC(=O)N[C@@H](CCC(=O)N[C@@H](CCC(=O)N[C@@H](CCC(=O)NCCCC[C@H](NC(=O)COCCOCCNC(=O)COCCOCCNC(=O)COCCOCCNC(=O)[C@H](CCCCNC(C)=O)NC(=O)[C@H](CCCCN)NC(=O)[C@H](CCCNC(=N)N)NC(=O)C(C)(C)NC(=O)[C@H](CO)NC(=O)[C@H](Cc1c[nH]c2ccccc12)NC(=O)[C@@H](NC(=O)[C@H](CO)NC(=O)[C@H](CCCC)NC(=O)CNC(=O)[C@H](CCC(=O)O)NC(=O)C(C)(C)NC(=O)C(C)(C)NC(=O)[C@@H](NC(=O)[C@H](CCCCNC(C)=O)NC(=O)[C@H](C)NC(=O)[C@H](CCCNC(=N)N)NC(=O)[C@@H](NC(=O)[C@H](CCCCN)NC(=O)[C@H](CCC(=O)O)NC(=O)[C@H](CCCNC(=N)N)NC(=O)CNC(=O)[C@H](CCC(=O)O)NC(=O)[C@H](CC(C)C)NC(C)=O)C(C)C)[C@@H](C)CC)[C@@H](C)O)C(N)=O)C(=O)O)C(=O)O)C(=O)O (Ac-LEGREKVRAK(Ac)I[Aib][Aib]EG[Nle]STWS[Aib]RKK(Ac)[AEEA][AEEA][AEEA]K([γGlu-γGlu-γGlu-Palmitoyl])-NH2) | 1.6 | 91 | 77 | 80 | – |
| CCCCCCCCCCCCCCCC(=O)N[C@@H](CCC(=O)N[C@@H](CCC(=O)NC(CCC(=O)NCCOCCOCC(=O)NCCOCCOCC(=O)NCCOCCOCC(=O)NCCCC[C@H](NC(=O)[C@H](C)NC(=O)[C@H](CCCNC(=N)N)NC(=O)[C@@H](NC(=O)[C@H](CCCCN)NC(=O)[C@H](CCC(=O)O)NC(=O)[C@H](CCCNC(=N)N)NC(=O)CNC(=O)[C@H](CCC(=O)O)NC(=O)[C@H](CC(C)C)NC(C)=O)C(C)C)C(=O)N[C@H](C(=O)NC(C)(C)C(=O)NC(C)(C)C(=O)N[C@@H](CCC(=O)O)C(=O)NCC(=O)N[C@@H](CCCC)C(=O)N[C@@H](CO)C(=O)N[C@H](C(=O)N[C@@H](Cc1c[nH]c2ccccc12)C(=O)N[C@@H](CO)C(=O)NC(C)(C)C(=O)N[C@@H](CCCNC(=N)N)C(=O)N[C@@H](CCCCN)C(=O)N[C@@H](CCCCNC(C)=O)C(N)=O)[C@@H](C)O)[C@@H](C)CC)C(=O)O)C(=O)O)C(=O)O (stereo not given in full) (Ac-LEGREKVRAK([AEEA-AEEA-AEEA-ξγGlu-γGlu-γGlu-Palmitoyl])I[Aib][Aib]EG[Nle]STWS[Aib]RKK(Ac)-NH2) | 14.5 | 78 | > 2000 | – | – |
| CCCCCCCCCCCCCCCC(=O)N[C@@H](CCC(=O)N[C@@H](CCC(=O)N[C@@H](CCC(=O)NCCCOCCOCCOCCCNC(=O)CCC(=O)NCCCOCCOCCOCCCNC(=O)CCC(=O)NCCCOCCOCCOCCCNC(=O)CCC(=O)NCCCC[C@H](NC(=O)[C@H](C)NC(=O)[C@H](CCCNC(=N)N)NC(=O)[C@@H](NC(=O)[C@H](CCCCN)NC(=O)[C@H](CCC(=O)O)NC(=O)[C@H](CCCNC(=N)N)NC(=O)CNC(=O)[C@H](CCC(=O)O)NC(=O)[C@H](CC(C)C)NC(C)=O)C(C)C)C(=O)N[C@H](C(=O)NC(C)(C)C(=O)NC(C)(C)C(=O)N[C@@H](CCC(=O)O)C(=O)NCC(=O)N[C@@H](CCC(N)=O)C(=O)N[C@@H](CO)C(=O)N[C@H](C(=O)N[C@@H](Cc1ccccc1)C(=O)N[C@@H](CO)C(=O)N[C@@](C)(CCCCN)C(=O)N[C@@H](CCCNC(=N)N)C(=O)N[C@@H](C)C(=O)N[C@@H](CCCCNC(C)=O)C(N)=O)[C@@H](C)O)[C@@H](C)CC)C(=O)O)C(=O)O)C(=O)O (Ac-LEGREKVRAK([Suc-X2])I[Aib][Aib]EGQSTFS[αMeK]RAK(Ac)-NH2) | 0.06 | 95 | 19.4 | 94 | 11.5 |
| CCCCCCCCCCCCCCCC(=O)N[C@@H](CCC(=O)N[C@@H](CCC(=O)N[C@@H](CCC(=O)NCCCC[C@H](NC(=O)CCOCCOCCOCCOCCOCCOCCOCCOCCOCCOCCOCCOCCNC(=O)[C@H](CCCCNC(C)=O)NC(=O)[C@H](CCCCN)NC(=O)[C@H](CCCNC(=N)N)NC(=O)C(C)(C)NC(=O)[C@H](CO)NC(=O)[C@H](Cc1c[nH]c2ccccc12)NC(=O)[C@@H](NC(=O)[C@H](CO)NC(=O)[C@H](CCCC)NC(=O)CNC(=O)[C@H](CCC(=O)O)NC(=O)C(C)(C)NC(=O)C(C)(C)NC(=O)[C@@H](NC(=O)[C@H](CCCCNC(C)=O)NC(=O)C(C)(C)NC(=O)[C@H](CCCNC(=N)N)NC(=O)[C@@H](NC(=O)[C@H](CCCCN)NC(=O)[C@H](CCC(=O)O)NC(=O)[C@H](CCCNC(=N)N)NC(=O)CNC(=O)[C@H](CCC(=O)O)NC(=O)[C@H](CC(C)C)NC(C)=O)C(C)C)[C@@H](C)CC)[C@@H](C)O)C(N)=O)C(=O)O)C(=O)O)C(=O)O (Ac-LEGREKVR[Aib]K(Ac)I[Aib][Aib]EG[Nle]STWS[Aib]RKK(Ac)[PEG12]K([γGlu-γGlu-γGlu-Palmitoyl])-NH2) | – | 86 | 46 | 82 | 6.9 |

— ChEMBL document CHEMBL6096738, “Optimization of Single Relaxin B-Chain Peptide Leads to the Identification of R2R01, a Potent, Long-Acting RXFP1 Agonist for Cardiovascular and Renal Diseases” (J Med Chem, 2025)
